Laboratory results from patent US20200317660A1, “Quinazolinone Compound and Application Thereof” (LUOXIN PHARMACEUTICAL (SHANGHAI) CO., LTD., priority 2017, published 2020).
Read-outs that look alike come from different tables or passages of the source.

Key:
PI3Kδ = biological target: T1, PI3Kδ (Homo sapiens, UniProt O00329); experiment: In vitro test of enzyme activity (ADP-Glo lipokinase), PI3K delta; assay type: biochemical; details: 40 μM ATP, 50 μM PIP2:3PS, 120 min
T1 construct: purchased Millipore 14-604-K
Description: (§1) 1. In Vitro Test of Enzyme Activity
(§2) The lipokinase reaction was carried out under the conditions of a suitable substrate and ATP, followed by two steps to detect the kinase activity with the ADP-Glo™ kit. The first step was terminating the kinase reaction, wherein the remaining ATP was completely removed and only ADP was left; the second step was adding kinase detection reagents to convert ADP to ATP, accompanied by luciferin/luciferase reaction. Finally, the output value of fluorescence value was converted into kinase activity.
(§3) Experimental materials and equipments:
(§4) 2. Kit: ADP-Glo™ Lipokinase and PIP2:3PS Kit (Promega # V1792)
(§5) The kit contains: 1 mM PIP2:3PS, 10× lipid dilution buffer, 1 M magnesium chloride, 10 mM ATP, 10 mM ADP, ADP-Glo reagent, detection buffer and detection substrate.
(§6) 3. Reaction plate: OptiPlate-384, white and transparent (PerkinElmer #6007299).
(§7) 1. 10× reaction buffer: 500 mM HEPES, pH 7.5, 500 mM NaCl, 9 mM MgCl2; BSA: 10% stock solution, homemade.
(§8) 2. Final test system conditions: 1× reaction system: 50 mM HEPES, 50 mM NaCl, 3 mM MgCl2, 0.01% BSA (freshly prepared on the day of the experiment), 1% DMSO (v/v)+/−compound
(§9) 3. Reaction system: 3 μL mixture of the enzyme and the substrate (1:1)+2 μL ATP/MgCl2 mixture+5 μL ADP-Glo reagent+10 μL detection reagent.
(§10) The detailed experimental procedures are as follows:
(§11) 1. Compound dilution: 50 nL 100×compound/DMSO was transferred to the test well plate with Echo. • For PI3Kα, the compound was diluted three-fold from the highest concentration of 0.111 mM for a total of 10 concentrations. • For PI3Kβ/PI3Kδ/PI3Kγ, the compound was three-fold diluted from the highest concentration of 1.11 mM for a total of 10 concentrations.
(§12) (1) The compound to be tested was prepared and 50 nL of 100 plus compound solution or DMSO was added to the corresponding well plate.
(§13) (2) 3.33 plate reaction buffer was prepared.
(§14) (3) 3.33 solution PIP2:3PS was prepared, PIP2:3PS was thawed for at least 1 minute before use.
(§15) (4) 2.5 mM containing 5.25 mM MgCl2 was prepared.
(§16) (5) 3.33 PI3Kα/PI3Kβ/PI3Kδ/PI3Kγ solution was prepared.
(§17) (6) The lipokinase solution and the PIP2:3PS solution were mixed in a volume ratio of 1:1.
(§18) (7) 3.33: lipokinase buffer and PIP2:3PS solution were mixed in a volume ratio of 1:1.
(§19) (8) 3 μL of buffer solution and PIP2:3PS were added to the first and the second columns of the well plate.
(§20) (9) 3 μL of the mixed solution of the enzyme and PIP2:3PS was added to the wells except the first and the second columns, centrifuged for 10 seconds (1000 rpm) and incubated at 23° C. for 20 minutes.
(§21) (10) 2 μL […] was added and well was shaken.
(§22) (11) The well plate was covered and shaken for about 30 s, then the well plate was incubated at 23° C. for 2 hours.
(§23) (12) 5 μL of ADP-Glo reagent containing 10 mM MgCl2 was added.
(§24) (13) The well plate was centrifuged at 1000 rpm for 10 seconds, and the well plate was then covered, shaken for about 30 seconds, and incubated at 23° C. for 60 minutes.
(§25) (14) 10 μL kinase detection reagent was added.
(§26) (15) The well plate was centrifuged at 1000 rpm for 10 seconds, and then incubated at 23° C. for 60 minutes.
(§27) (16) The fluorescence value was measured on the Envision instrument.

PI3Kβ = biological target: T2, PI3Kβ (Homo sapiens, UniProt P42338); experiment: In vitro test of enzyme activity (ADP-Glo lipokinase), PI3K beta; assay type: biochemical; details: 40 μM ATP, 50 μM PIP2:3PS, 120 min
T2 construct: purchased Promega V1751
Description: as §1, §2, §3, §4, §5, §6, §7, §8, §9, §10, §11, §12, §13, §14, §15, §16, §17, §18, §19, §20, §21, §22, §23, §24, §25, §26, §27

PI3Kγ = biological target: T3, PI3Kγ (Homo sapiens, UniProt P48736); experiment: In vitro test of enzyme activity (ADP-Glo lipokinase), PI3K gamma; assay type: biochemical; details: 25 μM ATP, 50 μM PIP2:3PS, 120 min
T3 construct: purchased Millipore 14-558-K
Description: as §1, §2, §3, §4, §5, §6, §7, §8, §9, §10, §11, §12, §13, §14, §15, §16, §17, §18, §19, §20, §21, §22, §23, §24, §25, §26, §27

PI3Kα = biological target: T4, PI3Kα (Homo sapiens, UniProt P42336); experiment: In vitro test of enzyme activity (ADP-Glo lipokinase), PI3K alpha; assay type: biochemical; details: 40 μM ATP, 50 μM PIP2:3PS, 120 min
T4 construct: purchased Millipore 14-602-K
Description: as §1, §2, §3, §4, §5, §6, §7, §8, §9, §10, §11, §12, §13, §14, §15, §16, §17, §18, §19, §20, §21, §22, §23, §24, §25, §26, §27

[1] = system: phosphorylation of PI3K downstream protein Akt in MCF7 cells; experiment: In vitro test of cells activity: ELISA of Akt phosphorylation in MCF7 cells; assay type: cell-based; details: 2 h compound, insulin 10 μg/mL stimulation, pAkt ELISA, read-out: MCF7 Cell IC50
Description: 2. In vitro test of cells activity
By the method of ELISA, the inhibition level of the test compound on the phosphorylation of PI3K downstream protein Akt in the signaling pathway was determined in MCF7 cells line to reflect the cells activity of the compound.
Cell culture medium: complete cell culture medium (RPMI 1640+10% serum+1% L-glutamine+1% double antibody)
Serum-free medium (without serum, RPMI 1640+1% L-glutamine+1% double antibody)
The detailed procedures areas follows:
(1) MCF7 cells (ATCC® HTB-22™) were inoculated into a 96-well plate at 100 μL of cell complete medium per well (2.5*10^4 cells per well), and the cells were incubated at 37° C. and 5% CO2 for 24 hours.
(2) The complete cell culture medium was replaced with 100 μL of serum-free medium, and incubated for starvation overnight.
(3) The compound was prepared (The initial concentration of the compound is 1 mM, which was subjected to a three-fold dilution in 10 concentrations, and the compound of each concentration was then diluted 100-fold with serum-free medium). 25 μL of the diluted compound was added to the cells orifice plate.
(4) The cells were incubated at 37° C. and 5% CO2 for 2 hours.
(5) The cells in the well plate were stimulated with 10 μg/mL insulin (Sigma # I9278-5 mL), incubated for 30 minutes, and then centrifuged at 1000 rpm for 5 minutes at room temperature.
(6) 250 μL of 1× balanced salt solution (Invitrogen, #14065-056, 4° C., containing 1 mM/L Na3VO4) was added to each well to wash the cells once.
(7) 100 μL of lysis buffer (trimethylolaminomethane hydrochloride, Invitrogen, #15567-1000 ml) was added to each well, shaken at 4° C. for 60 minutes, and then centrifuged at 4000 rpm for 4 minutes.
(8) The following procedures were carried out according to the instructions of ELISA kit (TGR BioSciences # EKT002).

T3 sequence (P48736 whole entry): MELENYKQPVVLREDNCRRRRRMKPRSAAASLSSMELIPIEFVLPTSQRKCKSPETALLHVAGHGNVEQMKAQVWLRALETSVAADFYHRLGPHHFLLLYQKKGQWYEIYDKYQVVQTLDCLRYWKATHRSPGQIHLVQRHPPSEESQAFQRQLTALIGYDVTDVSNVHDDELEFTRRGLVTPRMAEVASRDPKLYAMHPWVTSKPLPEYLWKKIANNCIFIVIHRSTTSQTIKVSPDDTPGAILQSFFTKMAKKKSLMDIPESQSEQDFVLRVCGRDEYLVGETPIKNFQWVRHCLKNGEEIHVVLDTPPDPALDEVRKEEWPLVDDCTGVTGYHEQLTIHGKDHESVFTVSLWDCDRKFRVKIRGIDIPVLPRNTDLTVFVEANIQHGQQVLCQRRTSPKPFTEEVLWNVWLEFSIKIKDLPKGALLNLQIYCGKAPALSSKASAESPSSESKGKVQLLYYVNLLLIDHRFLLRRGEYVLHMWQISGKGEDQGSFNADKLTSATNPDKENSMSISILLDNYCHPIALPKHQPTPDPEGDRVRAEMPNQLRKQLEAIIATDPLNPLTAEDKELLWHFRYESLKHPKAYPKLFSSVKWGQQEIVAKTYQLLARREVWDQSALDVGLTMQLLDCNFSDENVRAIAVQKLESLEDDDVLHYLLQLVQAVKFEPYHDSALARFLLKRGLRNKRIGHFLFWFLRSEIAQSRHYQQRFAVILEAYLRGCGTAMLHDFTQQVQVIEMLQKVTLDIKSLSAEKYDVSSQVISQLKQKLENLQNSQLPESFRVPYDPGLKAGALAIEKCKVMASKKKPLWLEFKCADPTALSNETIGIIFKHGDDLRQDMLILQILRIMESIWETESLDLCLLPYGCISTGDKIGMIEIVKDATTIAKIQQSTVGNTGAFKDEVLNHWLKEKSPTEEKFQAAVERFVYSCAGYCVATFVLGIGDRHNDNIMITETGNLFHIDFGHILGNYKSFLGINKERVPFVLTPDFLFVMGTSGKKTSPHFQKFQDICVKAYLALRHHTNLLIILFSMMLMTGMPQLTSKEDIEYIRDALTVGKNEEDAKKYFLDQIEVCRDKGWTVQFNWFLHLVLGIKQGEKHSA
T1 sequence (O00329 whole entry): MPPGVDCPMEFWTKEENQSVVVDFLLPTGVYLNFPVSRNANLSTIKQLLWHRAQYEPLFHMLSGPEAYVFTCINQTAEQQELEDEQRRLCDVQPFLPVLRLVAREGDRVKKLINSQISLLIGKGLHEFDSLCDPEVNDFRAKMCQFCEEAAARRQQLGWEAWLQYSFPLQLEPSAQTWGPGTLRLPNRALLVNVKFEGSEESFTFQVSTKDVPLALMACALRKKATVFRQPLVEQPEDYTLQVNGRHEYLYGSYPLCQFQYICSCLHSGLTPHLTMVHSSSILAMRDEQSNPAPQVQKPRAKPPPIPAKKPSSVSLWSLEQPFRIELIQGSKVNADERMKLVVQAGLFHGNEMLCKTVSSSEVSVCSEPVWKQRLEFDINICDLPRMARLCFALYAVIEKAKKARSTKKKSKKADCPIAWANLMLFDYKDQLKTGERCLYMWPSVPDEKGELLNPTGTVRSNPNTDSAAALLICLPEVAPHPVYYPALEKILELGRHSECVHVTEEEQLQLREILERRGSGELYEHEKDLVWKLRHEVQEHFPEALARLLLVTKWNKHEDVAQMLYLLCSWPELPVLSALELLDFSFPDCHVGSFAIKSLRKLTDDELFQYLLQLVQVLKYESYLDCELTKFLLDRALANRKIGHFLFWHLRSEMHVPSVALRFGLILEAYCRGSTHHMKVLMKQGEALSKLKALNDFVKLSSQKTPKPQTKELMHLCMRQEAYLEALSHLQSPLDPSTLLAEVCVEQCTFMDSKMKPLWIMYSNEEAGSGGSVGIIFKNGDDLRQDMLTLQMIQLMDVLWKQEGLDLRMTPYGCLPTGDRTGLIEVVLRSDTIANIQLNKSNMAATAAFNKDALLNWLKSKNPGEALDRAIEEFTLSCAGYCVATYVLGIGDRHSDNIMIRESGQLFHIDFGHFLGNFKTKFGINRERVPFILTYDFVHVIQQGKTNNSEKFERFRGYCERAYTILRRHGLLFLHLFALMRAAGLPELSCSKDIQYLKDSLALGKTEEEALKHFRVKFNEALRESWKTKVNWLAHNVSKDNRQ
T1 sequence (P27986 whole entry partner): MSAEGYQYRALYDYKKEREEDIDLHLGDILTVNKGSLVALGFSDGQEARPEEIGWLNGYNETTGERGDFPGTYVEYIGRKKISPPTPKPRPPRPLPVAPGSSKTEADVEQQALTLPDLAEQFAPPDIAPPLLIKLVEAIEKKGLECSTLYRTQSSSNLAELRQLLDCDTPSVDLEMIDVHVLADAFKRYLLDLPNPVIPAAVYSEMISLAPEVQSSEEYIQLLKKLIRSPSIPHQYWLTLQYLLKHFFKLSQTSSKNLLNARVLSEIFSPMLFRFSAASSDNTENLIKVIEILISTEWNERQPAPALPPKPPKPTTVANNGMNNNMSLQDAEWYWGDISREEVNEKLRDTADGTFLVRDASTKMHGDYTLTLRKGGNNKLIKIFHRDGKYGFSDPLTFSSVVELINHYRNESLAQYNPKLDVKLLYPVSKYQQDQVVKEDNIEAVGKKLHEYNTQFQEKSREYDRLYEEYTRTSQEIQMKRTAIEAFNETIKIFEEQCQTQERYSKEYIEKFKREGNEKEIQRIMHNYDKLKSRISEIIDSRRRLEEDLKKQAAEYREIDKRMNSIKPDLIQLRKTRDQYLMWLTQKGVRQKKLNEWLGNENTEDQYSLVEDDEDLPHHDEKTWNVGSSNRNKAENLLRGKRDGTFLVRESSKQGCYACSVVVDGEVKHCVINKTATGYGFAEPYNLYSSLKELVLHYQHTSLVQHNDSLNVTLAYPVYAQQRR
T4 sequence (P42336 whole entry): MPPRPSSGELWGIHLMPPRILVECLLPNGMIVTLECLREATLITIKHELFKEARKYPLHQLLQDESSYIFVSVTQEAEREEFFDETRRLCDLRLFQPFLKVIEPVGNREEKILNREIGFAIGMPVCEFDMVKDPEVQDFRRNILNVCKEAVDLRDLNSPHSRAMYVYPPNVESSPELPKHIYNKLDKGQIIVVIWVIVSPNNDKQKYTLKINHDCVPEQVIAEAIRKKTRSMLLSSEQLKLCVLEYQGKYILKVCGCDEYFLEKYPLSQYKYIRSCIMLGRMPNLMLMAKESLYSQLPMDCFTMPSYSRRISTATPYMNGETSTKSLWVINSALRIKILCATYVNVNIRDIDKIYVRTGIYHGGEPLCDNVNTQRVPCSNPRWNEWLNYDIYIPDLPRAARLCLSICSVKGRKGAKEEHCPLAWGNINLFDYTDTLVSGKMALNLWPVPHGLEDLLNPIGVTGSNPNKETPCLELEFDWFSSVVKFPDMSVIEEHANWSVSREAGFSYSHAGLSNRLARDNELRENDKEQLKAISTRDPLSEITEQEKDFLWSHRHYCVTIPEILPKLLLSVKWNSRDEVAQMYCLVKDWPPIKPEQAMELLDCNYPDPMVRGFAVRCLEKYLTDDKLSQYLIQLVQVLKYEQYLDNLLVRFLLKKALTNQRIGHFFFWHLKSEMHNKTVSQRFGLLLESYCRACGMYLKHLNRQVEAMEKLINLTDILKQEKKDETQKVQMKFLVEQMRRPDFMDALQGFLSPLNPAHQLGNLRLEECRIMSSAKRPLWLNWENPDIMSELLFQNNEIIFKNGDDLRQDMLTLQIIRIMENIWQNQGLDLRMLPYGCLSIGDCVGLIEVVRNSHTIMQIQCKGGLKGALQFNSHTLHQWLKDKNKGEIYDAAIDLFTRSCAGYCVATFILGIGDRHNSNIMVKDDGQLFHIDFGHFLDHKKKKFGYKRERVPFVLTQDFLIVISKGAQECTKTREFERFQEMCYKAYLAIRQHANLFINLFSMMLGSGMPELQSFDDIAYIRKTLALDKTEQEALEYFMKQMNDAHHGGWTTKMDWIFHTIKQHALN
T4 sequence (P27986 whole entry partner): as the sequence (P27986 whole entry partner) above
T2 sequence (P42338 whole entry): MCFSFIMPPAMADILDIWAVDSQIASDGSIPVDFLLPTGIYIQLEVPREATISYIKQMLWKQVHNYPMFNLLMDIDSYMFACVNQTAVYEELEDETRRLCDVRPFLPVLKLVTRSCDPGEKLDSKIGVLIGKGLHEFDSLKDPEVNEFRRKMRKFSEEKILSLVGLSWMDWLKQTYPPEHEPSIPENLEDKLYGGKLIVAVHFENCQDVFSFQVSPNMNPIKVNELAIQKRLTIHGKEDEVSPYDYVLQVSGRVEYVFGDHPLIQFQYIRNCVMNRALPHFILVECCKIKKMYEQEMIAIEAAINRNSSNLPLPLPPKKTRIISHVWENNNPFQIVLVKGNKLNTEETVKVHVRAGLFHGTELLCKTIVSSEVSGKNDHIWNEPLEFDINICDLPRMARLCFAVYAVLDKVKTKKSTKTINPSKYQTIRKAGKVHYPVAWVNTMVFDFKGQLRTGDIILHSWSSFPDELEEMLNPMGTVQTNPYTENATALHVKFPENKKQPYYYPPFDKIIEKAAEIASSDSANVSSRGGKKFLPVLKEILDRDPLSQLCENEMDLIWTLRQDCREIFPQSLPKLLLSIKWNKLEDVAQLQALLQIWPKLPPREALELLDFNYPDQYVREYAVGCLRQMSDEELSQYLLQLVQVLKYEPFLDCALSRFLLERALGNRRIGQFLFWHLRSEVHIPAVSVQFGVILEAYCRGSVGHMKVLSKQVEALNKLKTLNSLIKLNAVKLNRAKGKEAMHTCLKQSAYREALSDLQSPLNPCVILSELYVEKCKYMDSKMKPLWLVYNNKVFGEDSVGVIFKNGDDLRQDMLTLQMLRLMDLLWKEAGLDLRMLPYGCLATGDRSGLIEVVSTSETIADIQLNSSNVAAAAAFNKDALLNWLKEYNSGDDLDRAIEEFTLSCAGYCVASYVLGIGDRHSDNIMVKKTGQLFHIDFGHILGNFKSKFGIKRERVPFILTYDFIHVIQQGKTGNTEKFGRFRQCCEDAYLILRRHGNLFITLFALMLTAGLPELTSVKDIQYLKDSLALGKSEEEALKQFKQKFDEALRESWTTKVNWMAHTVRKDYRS
T2 sequence (P27986 whole entry partner): as the sequence (P27986 whole entry partner) above

Row | SMILES | IC50 (PI3Kδ) [µM] | IC50 (PI3Kβ) [µM] | IC50 (PI3Kγ) [µM] | IC50 (PI3Kα) [µM] | IC50 [1] [µM] | IC50 ([1]; Homo sapiens, MCF7, 2 h) [µM]
1 | CNC(=O)[C@@H](C)Cn1cnc2ccc(-c3cnc(OC)c(NS(=O)(=O)c4cc(F)cc(F)c4)c3)cc2c1=O [WX192] | 0.0375 | 0.633 | 0.0378 | 0.00539 | 0.0536 | –
2 | CCC(CC)NC(=O)C(C)Cn1cnc2ccc(-c3cnc(OC)c(NS(=O)(=O)c4ccc(F)cc4Cl)c3)cc2c1=O (single isomer, unassigned) [WX057] | 0.0284 | 0.963 | 0.0481 | 0.0572 | – | –
3 | CNC(=O)C(C)Cn1cnc2ccc(-c3cnc(CO)c(NS(=O)(=O)c4ccc(F)cc4Cl)c3)cc2c1=O (single isomer, unassigned) [WX062] | 0.538 | > 10 | 0.374 | 0.03 | – | –
4 | COc1ncc(-c2ccc3ncn(CC(N)C(N)=O)c(=O)c3c2)cc1NS(=O)(=O)c1ccc(F)cc1Cl (stereo not drawn) [WX040] | 0.0256 | 0.183 | 0.0399 | 0.0054 | – | 0.134
5 | COCCNC(=O)C(C)Cn1cnc2ccc(-c3cnc(OC)c(NS(=O)(=O)c4ccc(F)cc4Cl)c3)cc2c1=O (single isomer, unassigned) [WX064] | 0.00915 | 0.365 | 0.0164 | 0.0068 | – | –
6 | CNC(=O)C1(Cn2cnc3ccc(-c4cnc(OC)c(NS(=O)(=O)c5ccc(F)cc5Cl)c4)cc3c2=O)CC1 [WX202] | 0.00436 | 0.0885 | 0.0441 | 0.00671 | – | –
7 | Cc1nc(C)c(S(=O)(=O)Nc2cc(-c3ccc4ncn(CCCC(=O)NC(C)C)c(=O)c4c3)cnc2C)s1 [WX006] | 0.00453 | 0.279 | 0.0196 | 0.001 | – | 0.279
8 | CNC(=O)C(C)Cn1cnc2ccc(-c3cnc(OC(F)(F)F)c(NS(=O)(=O)c4ccc(F)cc4Cl)c3)cc2c1=O (stereo not drawn) [WX127] | – | 2.16 | – | 0.0228 | – | > 1
9 | CNC(=O)C(C)Cn1cnc2ccc(-c3cnc(CO)c(NS(=O)(=O)c4ccc(F)cc4Cl)c3)cc2c1=O (single isomer, unassigned) [WX063] | 0.336 | 7.23 | 0.318 | 0.0714 | – | –
10 | Cc1nc(C)c(S(=O)(=O)Nc2cc(-c3ccc4ncn(CCCC(=O)N5CCCC5)c(=O)c4c3)cnc2C)s1 [WX007] | 0.00185 | 0.159 | 0.0291 | 0.00149 | – | –
11 | CCC(Cn1cnc2ccc(-c3cnc(OC)c(NS(=O)(=O)c4ccc(F)cc4Cl)c3)cc2c1=O)C(N)=O (stereo not drawn) [WX021] | – | 0.133 | – | 0.00689 | – | 0.0523
12 | CNC(=O)C(C)Cn1cnc2c(F)cc(-c3cnc(OC)c(NS(=O)(=O)c4ccc(F)cc4Cl)c3)cc2c1=O (single isomer, unassigned) [WX106] | – | 0.736 | – | 0.0195 | 0.46 | –
13 | COc1ncc(-c2ccc3ncn(CC(C)C(=O)NCC(F)(F)F)c(=O)c3c2)cc1NS(=O)(=O)c1ccc(F)cc1Cl (single isomer, unassigned) [WX059] | 0.0132 | 0.391 | 0.0142 | 0.0112 | – | –
14 | COc1ncc(-c2ccc3ncn(CC(C(N)=O)C(C)C)c(=O)c3c2)cc1NS(=O)(=O)c1ccc(F)cc1Cl (stereo not drawn) [WX022] | – | 0.832 | – | 0.0255 | – | 0.125
15 | CNC(=O)C(C)Cn1cnc2ccc(-c3cnc(C)c(NS(=O)(=O)c4sc(C)nc4C)c3)cc2c1=O (single isomer, unassigned) [WX035] | 0.0073 | 0.158 | 0.0196 | 0.00157 | – | –
16 | CCC(Cn1cnc2ccc(-c3cnc(OC)c(NS(=O)(=O)c4ccc(F)cc4Cl)c3)cc2c1=O)C(=O)NC (single isomer, unassigned) [WX107] | – | 1.85 | – | 0.0181 | 0.302 | –
17 | COc1ncc(-c2ccc3ncn(CC(C)C(=O)NCCF)c(=O)c3c2)cc1NS(=O)(=O)c1ccc(F)cc1Cl (single isomer, unassigned) [WX066] | 0.00778 | 0.181 | 0.00925 | 0.00526 | – | –
18 | CNC(=O)C(C)Cn1cnc2ccc(-c3cnc(OC)c(NS(=O)(=O)c4cc(Cl)c(F)cc4F)c3)cc2c1=O (single isomer, unassigned) [WX095] | 0.0296 | 0.39 | 0.0683 | 0.00477 | – | –
19 | COc1ncc(-c2ccc3ncn(CC(F)(F)C(N)=O)c(=O)c3c2)cc1NS(=O)(=O)c1ccc(F)cc1Cl [WX041] | 0.00716 | 0.124 | 0.00837 | 0.00266 | – | –
20 | Cc1ncc(-c2ccc3ncn(CCCC(=O)N4CCCC4)c(=O)c3c2)cc1NS(=O)(=O)c1ccc(F)cc1Cl [WX005] | 0.00742 | 0.244 | 0.0497 | 0.00439 | – | –
21 | Cc1ncc(-c2ccc3ncn(CCN(C)C)c(=O)c3c2)cc1NS(=O)(=O)c1ccc(F)cc1Cl [R010, reference compound] | 0.0458 | 0.345 | 0.421 | 0.0344 | – | –
22 | CCC(CC)NC(=O)C(C)Cn1cnc2ccc(-c3cnc(OC)c(NS(=O)(=O)c4ccc(F)cc4Cl)c3)cc2c1=O (single isomer, unassigned) [WX056] | 0.061 | 5.08 | 0.155 | 0.0196 | – | –
23 | CNC(=O)C(C)Cn1cnc2ccc(-c3cnc(C)c(NS(=O)(=O)c4sc(C)nc4C)c3)cc2c1=O (single isomer, unassigned) [WX034] | 0.0116 | 0.554 | 0.0299 | 0.00071 | – | –
24 | CCC(Cn1cnc2ccc(-c3cnc(OC)c(NS(=O)(=O)c4ccc(F)cc4Cl)c3)cc2c1=O)C(=O)NC (single isomer, unassigned) [WX108] | – | 0.415 | – | 0.0139 | 0.0965 | –
25 | CNC(=O)[C@@H]1CCC[C@H]1Cn1cnc2ccc(-c3cnc(OC)c(NS(=O)(=O)c4ccc(F)cc4Cl)c3)cc2c1=O (single isomer, unassigned) [WX196] | – | 1.77 | – | 0.041 | 0.395 | –
